Experimental data reported in patent US12404244B2, “Pan-KIT kinase inhibitor having quinoline structure and application thereof” (Tarapeutics Science Inc., priority 2018, dated 2025).
Where two headings read alike, the source gives them in different places.

Experiments:
[1] = system: TEL-cKIT/D820G-BaF3 mouse tumor model; test: Tumor-grafted mouse model established with TEL-cKIT/D820G-BaF3 cells; type: in vivo; conditions: oral, every day
Method: In this example Compound 1 and Compound 2 were respectively tested in TEL-cKIT/T670I-BaF3, TEL-cKIT/Y823D-BaF3, TEL-cKIT/D820G-BaF3 and GIST-T1-T670I mouse models.
Experimental protocols were as follows. • (1) Bal b/c female mice aged 4-6 weeks were purchased from Beijing Weitong Lihua Laboratory Animal Co., Ltd., and the mice were raised in an SPF laboratory. The drinking water and padding were sterilized by autoclaving. All operations on mice were conducted under aseptic conditions. • (2) About 5×10^6 TEL-cKIT/T670I-BaF3, TEL-cKIT/Y823D-BaF3, TEL-cKIT/D820G-BaF3 or GIST-T1-T670I cells were respectively injected subcutaneously onto the left back of all mice on Day 0. • (3) From Day 6, for the TEL-cKIT/T670I-BaF3 mouse model the corresponding mice were administrated orally every day with methylcellulose (HKI) as the vehicle (5 mice); with Compound 1 and Compound 2 at a dosage of 10 mg/kg, 20 mg/kg, 40 mg/kg, 100 mg/kg mouse weight (5 mice in each group); and with Sunitnib (purchased from MedChemExpress, China) at a dosage of 40 mg/kg mouse weight (5 mice). From day 6, for the TEL-cKIT/Y823D-BaF3 and TEL-cKIT/D820G-BaF3 mouse models the corresponding mice were administrated orally every day with methylcellulose (HKI) as the vehicle (5 mice); with Compound 1 and Compound 2 at a dosage of 40 mg/kg, 80 mg/kg mouse weight (5 mice in each group); and with Sunitnib (purchased from MedChemExpress, China) at a dosage of 40 mg/kg mouse weight (5 mice). From day 15, for the GIST-T1-T670I mouse model the corresponding mice were administrated orally every day with methylcellulose (HKI) as the vehicle (5 mice); with Compound 1 and Compound 2 at a dosage of 20 mg/kg, 40 mg/kg, 80 mg/kg mouse weight (5 mice in each group); and with Sunitnib at a dosage of 40 mg/kg mouse weight (5 mice). • (4) From day 6 (TEL-cKIT/T670I-BaF3, TEL-cKIT/Y823D-BaF3, TEL-cKIT/D820G-BaF3 mouse model) and From day 15 (GIST-T1-T670I mouse model), respectively, the length/width of the subcutaneous tumor were measured with a vernier caliper every day and the body weight of the mouse was recorded every day so as to determine the effects of Compound 1 and Compound 2 on the body weight and tumor size of the mice, respectively. • (5) The mice were sacrificed on Day 11 after administration for the TEL-cKIT/T670I-BaF3 mouse model, on Day 9 after administration for the TEL-cKIT/Y823D-BaF3 and TEL-cKIT/D820G-BaF3 mouse models, and on Day 28 after administration for the GIST-T1-T670I mouse model. The subcutaneous tumors were taken out, and the tumors were weighed and compared. • (6) The growth trend of subcutaneous tumors was calculated and the tumor size was calculated according to: length×width×width/2 mm^3.

BaF3 = test: Proliferation of parental BaF3 cells (CCK-8); type: cell-based, mouse; conditions: Mus musculus, read-out: GI50 BaF3
Source text: Compounds as provided herein were further evaluated for their inhibitory effects on proliferation of cancer cells by testing their effects on growth of cancer cells. In this example the following cells were used: primary mouse B cells BaF3 (purchased from ATCC), GIST-T1 cells of the human gastrointestinal stromal tumor cell line (expressing wild-type KIT gene) (purchased from Cosmo Bio Co., Ltd. (Japan)). The present lab further constructed and used the following: mouse Tel-Kit-BaF3 (stably expressing KIT wild-type kinase), mouse Tel-Kit/T670I-BaF3 (stably expressing KIT T670I mutant kinase), mouse Tel-Kit/V559A-BaF3 (stably expressing KIT V559A mutant kinase), mouse Tel-Kit/V559D-BaF3 (stably expressing KIT V559D mutant kinase), mouse Tel-Kit/V559G-BaF3 (stably expressing KIT V559G mutant kinase), mouse Tel-Kit/V560D-BaF3 (stably expressing KIT V560D mutant kinase), mouse Tel-Kit/L576P-BaF3 (stably expressing KIT L576P mutant kinase), mouse Tel-Kit/V654A-BaF3 (stably expressing KIT V654A mutant kinase), mouse Tel-Kit/V654A/V559D-BaF3 (stably expressing KIT V654A V559D mutant kinase), mouse Tel-Kit/T670E-BaF3 (stably expressing KIT T670E mutant kinase), mouse Tel-Kit/T670I/V559D-BaF3 (stably expressing KIT T670I V559D mutant kinase), mouse Tel-Kit/S709F-BaF3 (stably expressing KIT S709F mutant kinase), mouse Tel-Kit/D816E-BaF3 (stably expressing KIT D816E mutant kinase), mouse Tel-Kit/D816H-BaF3 (stably expressing KIT D816H mutant kinase), mouse Tel-Kit/D820E-BaF3 (stably expressing KIT D820E mutant kinase), mouse Tel-Kit/D820G-BaF3 (stably expressing KIT D820G mutant kinase), mouse Tel-Kit/D820Y-BaF3 (stably expressing KIT D820Y mutant kinase), mouse Tel-Kit/N822K-BaF3 (stably expressing KIT N822K mutant kinase), mouse Tel-Kit/Y823D-BaF3 (stably expressing KIT Y823D mutant kinase), mouse Tel-Kit/A829P-BaF3 (stably expressing KIT A829P mutant kinase), GIST-T1-T670I cells of the human gastrointestinal stromal tumor cell line (expressing KIT-T670I mutant gene). The above cell lines were constructed by: amplifying respectively the sequences of human KIT and various mutant kinase regions of KIT via PCR, inserting the fragments respectively into MSCV-Puro vectors having a N-terminal TEL fragment and/or a NPM fragment and/or a TPR fragment (purchased from Clontech), transfecting mouse BaF3 cells with the vectors by means of retrovirus to obtain stably transfected cells, removing the growth factor IL-3, and thereby eventually obtaining cell lines that depend on the transferred protein KIT or various mutants of KIT. The GIST-T1-T670I (expressing C-KIT-T670I mutant gene) cell line was constructed by our laboratory as follows: designing sgRNA that targeted a region around T670 of the KIT gene with CRISPR Design Tool (website: crispr.mit.edu, Zhang Feng Lab), cloning it into pSpCas9(BB)-2A-Puro vector; co-transfecting cells with the resultant vector and a single-stranded oligonucleotide having T670I site mutation that is near to T670, subjecting the resultant to antibiotics screening, followed by dilution, and monocellular culture in a 96-well plate; validating the site T670 of the cells by sequence detection via Sanger sequencing.
The cells after incubation were detected using CCK-8 (purchased from MedChem Express, Shanghai, China) cell viability assay kit (CCK-8 may be reduced by dehydrogenase in living cells to a highly water-soluble yellow formazan product, and the amount of the resultant formazan is proportional to the number of living cells), the number of living cells were quantified with a microplate reader, and GI50 of the compounds and the control compounds were calculated (the results shown in Table 2 and Table 3).

Row | SMILES | inhibitory effects against tumor in mice ([1]; 40 mg/kg) | tumor inhibition rate ([1]; 40 mg/kg) | influence on mice weight [1] | GI50 (BaF3; BaF3 parent cells, 72 hours, CCK-8) | GI50 (BaF3; BaF3, 72 h)
1 | COc1cc2nccc(Oc3ccc(NC(=O)Cc4ccc(Cl)c(C(F)(F)F)c4)cc3)c2cc1OC [Example 2, N-(4-((6,7-dimethoxyquinolin-4-yl)oxy)phenyl)-2-(4-chloro-3-(trifluoromethyl)phenyl)-acetamide] | excellent inhibitory effects against tumor in mice | ≥ 80% | without significant influence on mice weight | 5.97 µM | 
2 | COc1cc2nccc(Oc3ccc(NC(=O)Cc4ccc(C)c(C(F)(F)F)c4)cc3)c2cc1OC [Example 1, N-(4-((6,7-dimethoxyquinolin-4-yl)oxy)phenyl)-2-(4-methyl-3-(trifluoromethyl)phenyl)acetamide] | excellent inhibitory effects against tumor in mice |  | without significant influence on mice weight |  | 7.26 µM
